Reference: patent US10294202B2, “Pyrrolidinones as herbicides” (FMC Corporation, priority 2013, dated 2019)

How the values were obtained:
corn = assay: Test C pre-/postemergence herbicide test; type: in vivo, Zea mays; details: Preemergence
Method in brief: (§1)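 Two application timings ran in parallel with identically formulated test chemicals (non-phytotoxic solvent, surfactant included): spray on seeded loam–sand soil, and spray on emerged plants 2 to 18 cm high. Evaluation at 13 to 15 days compared each species with controls, rated from 0 up to 100.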

crabgrass, large = assay: Test C pre-/postemergence herbicide test; type: in vivo, Digitaria sanguinalis; details: Preemergence
Method in brief: as §1

ryegrass, Italian = assay: Test C pre-/postemergence herbicide test; type: in vivo, Lolium multiflorum; details: Preemergence
Method in brief: as §1

nutsedge, yellow = assay: Test C pre-/postemergence herbicide test; type: in vivo, Cyperus esculentus; details: Preemergence
Method in brief: as §1

lambsquarters = assay: Test C pre-/postemergence herbicide test; type: in vivo, Chenopodium album; details: Preemergence
Method in brief: as §1

giant foxtail = assay: Test A pre-/postemergence herbicide test; type: in vivo, Setaria faberii
Method in brief: (§2)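 Directed soil spray to seeded pots (preemergence) or spray onto one- to two-leaf seedlings 2–10 cm tall (postemergence); loam/sand substrate throughout. Evaluated visually after about 10 days against untreated plants, 0 = no effect, 100 = complete control.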

johnsongrass = assay: Test C pre-/postemergence herbicide test; type: in vivo, Sorghum halepense; details: Preemergence
Method in brief: as §1

pigweed = assay: Test C pre-/postemergence herbicide test; type: in vivo, Amaranthus retroflexus; details: Preemergence
Method in brief: as §1

ducksalad = assay: Test B flooded paddy test; type: in vivo, Heteranthera limosa; details: 1000 g ai/ha, Flood; scale of 0 to 100 where 0 is no effect and 100 is complete control
Method in brief: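 Visual ratings from 0, meaning no effect, up to 100, meaning complete control, were made by comparison with untreated controls 13 to 15 days after treatment. Test compounds went straight into floodwater standing 3 cm over the soil of pots holding 2-leaf seedlings.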

soybean = assay: Test C pre-/postemergence herbicide test; type: in vivo, Glycine max; details: Preemergence
Method in brief: as §1

barnyardgrass = assay: Test A pre-/postemergence herbicide test; type: in vivo, Echinochloa crus-galli
Method in brief: as §2

[1] = 31 g ai/ha, scale 0 to 100, 0 is no effect and 100 is complete control
[2] = 62 g ai/ha, scale 0 to 100 (0 no effect, 100 complete control)
[3] = Postemergence, 125 g ai/ha, visual rating on 0 to 100 scale (0 no effect, 100 complete control), approx. 10 days
[4] = Postemergence, 500 g ai/ha, 0 to 100 scale (0 no effect, 100 complete control)
[5] = Preemergence, 125 g ai/ha, 0 to 100 scale where 0 is no effect and 100 is complete control
[6] = Preemergence, 500 g ai/ha, visual rating on 0 to 100 scale (0 no effect, 100 complete control)

`O=C1NCC(c2cccc(C(F)(F)F)c2)C1C(=O)Nc1ccc(F)c(F)c1F` (stereo not drawn) [Compound 345] was tested, and the “Corn plant response rating” value (corn; [1]) was 40, the “Corn plant response rating” value (corn; [2]) was 35 and the “Plant response rating, Corn” value (corn; 125 g ai/ha, scale 0 to 100) was 65. The “Plant response rating (scale of 0 to 100), Corn” value (corn; 250 g ai/ha) was 85, the “Crabgrass, Large plant response rating” value (crabgrass, large; [1]) was 95 and the “Crabgrass, Large plant response rating” value (crabgrass, large; [2]) was 98. The “Plant response rating, Crabgrass, Large” value (crabgrass, large; 125 g ai/ha, scale 0 to 100) was 95, the “Plant response rating (scale of 0 to 100), Crabgrass, Large” value (crabgrass, large; 250 g ai/ha) was 98 and the “Ryegrass, Italian plant response rating” value (ryegrass, Italian; [2]) was 45. The “Plant response rating, Ryegrass, Italian” value (ryegrass, Italian; 125 g ai/ha, scale 0 to 100) was 10, the “Nutsedge, Yellow plant response rating” value (nutsedge, yellow; [1]) was 0 and the “Nutsedge, Yellow plant response rating” value (nutsedge, yellow; [2]) was 0. The “Plant response rating, Nutsedge, Yellow” value (nutsedge, yellow; 125 g ai/ha, scale 0 to 100) was 0, the “Plant response rating (scale of 0 to 100), Nutsedge, Yellow” value (nutsedge, yellow; 250 g ai/ha) was 0 and the “Lambsquarters plant response rating” value (lambsquarters; [1]) was 100. The “Lambsquarters plant response rating” value (lambsquarters; [2]) was 75, the “Plant response rating, Lambsquarters” value (lambsquarters; 125 g ai/ha, scale 0 to 100) was 85 and the “Plant response rating (scale of 0 to 100), Lambsquarters” value (lambsquarters; 250 g ai/ha) was 85. The “Plant response rating, Foxtail, Giant” value (giant foxtail; [3]) was 90, the “Plant response rating, Foxtail, Giant” value (giant foxtail; [4]) was 90 and the “Plant response rating, Foxtail, Giant” value (giant foxtail; [5]) was 90. The “Foxtail, Giant plant response rating” value (giant foxtail; [6]) was 90, the “Johnsongrass plant response rating” value (johnsongrass; [1]) was 35 and the “Johnsongrass plant response rating” value (johnsongrass; [2]) was 75. The “Plant response rating, Johnsongrass” value (johnsongrass; 125 g ai/ha, scale 0 to 100) was 85, the “Plant response rating (scale of 0 to 100), Johnsongrass” value (johnsongrass; 250 g ai/ha) was 90 and the “Pigweed plant response rating” value (pigweed; [1]) was 30. The “Pigweed plant response rating” value (pigweed; [2]) was 30, the “Plant response rating, Pigweed” value (pigweed; 125 g ai/ha, scale 0 to 100) was 65 and the “Plant response rating, Ducksalad” value (ducksalad) was 30. For the same compound, the “Soybean plant response rating” value (soybean; [2]) was 0, the “Plant response rating, Soybean” value (soybean; 125 g ai/ha, scale 0 to 100) was 5 and the “Plant response rating, Barnyardgrass” value (barnyardgrass; [3]) was 70. For the same compound, the “Plant response rating, Barnyardgrass” value (barnyardgrass; [4]) was 90, the “Plant response rating, Barnyardgrass” value (barnyardgrass; [5]) was 80 and the “Barnyardgrass plant response rating” value (barnyardgrass; [6]) was 90.
